Experiment in all cases: growth of human tumour cells (NCI), 48 h
For assay [1], the system named is CAKI-1.
Assay [2] concerns K562.
Assay [3] has as its system SF-268.
For assay [4], the system named is MOLT-4.
In assay [5] the test system is NCI-H226.
Assay [6] has as its system HOP-92.
Assay [7] deals with EKVX.
The test system of assay [8] is UACC-62.
Assay [9] has as its system MDA-N.
The test system of assay [10] is A549.
Assay [11] deals with SN12C.
Assay [12] deals with UO-31.
Assay [13] has as its system MDA-MB-435.
In assay [14] the test system is SK-MEL-5.
For assay [15], the system named is RXF 393.
In assay [16] the test system is HOP-62.
Assay [17] relates to MCF7.
For assay [18], the system named is HCT-15.
The subject of assay [19] is SK-MEL-28.

The structures appear in SMILES notation.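 Dose response: 5 concentrations. Exposure: 48 h. Format: 96-well plates. Endpoint: linear interpolation; highest concentration if not reached. GI50: concentration for 50% inhibition of growth.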 Calls of active or inactive are those of the source. Rule as the data show it: active = GI50 up to about 1.1 µM and inactive = higher.

In the case of `COc1nncc2[nH]c(-c3ccccc3)cc12`, the GI50 in [1] was 96.8 µM (inactive); in assay [2], 56.6 µM (inactive); in assay [3] it was 65.8 µM (inactive); in assay [4], 0.0652 µM (active); in assay [5], 80.9 µM (inactive); in assay [6], > 100 µM (inactive). Besides, the GI50 in assay [7] was 29.4 µM (inactive); in [8] it was 42.3 µM (inactive); in assay [9], 62.4 µM (inactive); in assay [10], 65.3 µM (inactive); in [11] it was 40.9 µM (inactive); in [12], 51.2 µM (inactive). Further, the GI50 was 73.3 µM (inactive) in assay [13]; 67.8 µM (inactive) in [14]; > 100 µM (inactive) in [15]; > 100 µM (inactive) in assay [16]; 49.7 µM (inactive) in [17]; 53 µM in [18].

`Nc1c2cc3ccc2nc2ccc(cc12)OCCOCCOCCOCCOCCOCCO3`: the GI50 in [1], in assay [2], in assay [3], in assay [4], in assay [5] and in assay [6] was > 10 µM (inactive) throughout. Besides, the GI50 in assay [7], in [8], in [9], in assay [10], in assay [11] and in assay [13] was > 10 µM (inactive) in each case. The GI50 is > 10 µM (inactive) in assay [14]; > 10 µM (inactive) in [15]; > 10 µM (inactive) in [19]; > 10 µM (inactive) in assay [16]; > 10 µM (inactive) in [17]; > 10 µM in [18].

With `COc1ccc(C(=O)CC(c2ccccc2)[C@H]2C(c3ccc(OC)cc3)=Nc3c(nc(SC)n(C)c3=O)NC2c2ccccc2)cc1` (some centres not stated), the GI50 in [1], in assay [2], in assay [3], in assay [4], in assay [5] and in assay [6] was > 100 µM (inactive) in each case. Besides, the GI50 in [7], in assay [8], in assay [9], in assay [10], in [11] and in [13] was > 100 µM (inactive) each time. In addition, the GI50 was 41.3 µM (inactive) in assay [14]; > 100 µM (inactive) in [15]; > 100 µM (inactive) in assay [19]; > 100 µM (inactive) in assay [16]; > 100 µM (inactive) in assay [17]; > 100 µM in assay [18].

Consider `COc1cccc(N2C(=O)C3c4[nH]c5ccccc5c4C4CCCC4C3C2=O)c1` (configuration not stated), for which the GI50 in assay [1] was 7.16 µM (inactive); in [2], > 10 µM (inactive); in [3], 9.66 µM (inactive); in assay [4] it was > 10 µM (inactive); in [5], 2.57 µM (inactive); in assay [6], 3.59 µM (inactive). Moreover, the GI50 in assay [7] was > 10 µM (inactive); in assay [8], > 10 µM (inactive); in assay [9], > 10 µM (inactive); in [10] it was 4.62 µM (inactive); in assay [11], 3.01 µM (inactive); in assay [13], > 10 µM (inactive). The GI50 was > 10 µM (inactive) in assay [14]; 9.04 µM (inactive) in [15]; > 10 µM (inactive) in assay [19]; 2.52 µM (inactive) in assay [16]; > 10 µM (inactive) in assay [17]; > 10 µM in assay [18].

The values are drawn from ChEMBL document CHEMBL1201862, “PubChem BioAssay data set” (2004).
